From ChEMBL document CHEMBL4414679, “Discovery of 4,6-pyrimidinediamine derivatives as novel dual EGFR/FGFR inhibitors aimed EGFR/FGFR1-positive NSCLC” (Eur J Med Chem, 2020)
Active and inactive are the calls of the source. The calls are words filed in the database; no cut-off is given here.

What was measured:
NCI-H1581 = assay: Antiproliferative activity against human NCI-H1581 cells incubated for 48 hrs by MTT assay; assay type: functional, cell-based; conditions: NCI-H1581, 48 h
[1] = target: Proto-oncogene tyrosine-protein kinase Src (Homo sapiens) (UniProt P12931); assay: Inhibition of full length N-terminal GST-tagged human SRC (1 to 536 AA) expressed in baculovirus at 10 uM using FAM-labelled peptide as substrate pre-incubated for 10 mins followed by substrate addition by mobility shift assay relative to control
[2] = target: CDK7/Cyclin H/MNAT1 (Homo sapiens) (UniProt P51946+P50613+P51948); assay: Inhibition of full length N-terminal GST-tagged human CDK7 (1 to 346 AA) coexpressed with CyclinH (1 to 323 AA)and MAT1 (1 to 309) in baculovirus at 10 uM using FAM-labelled peptide as substrate pre-incubated for 10 mins followed by substrate addition by mobility shift assay relative to control; assay type: protein-complex assay
[3] = target: RAC-alpha serine/threonine-protein kinase (Homo sapiens) (UniProt P31749); assay: Inhibition of N-terminal GST tagged human AKT1 catalytic domain (104 to 480 AA) expressed in baculovirus at 10 uM using FAM-labelled peptide as substrate pre-incubated for 10 mins followed by substrate addition by mobility shift assay relative to control
[4] = target: Tyrosine-protein kinase JAK2 (Homo sapiens) (UniProt O60674); assay: Inhibition of N-terminal GST tagged human JAK2 catalytic domain (826 to 1132 AA) expressed in baculovirus at 10 uM using FAM-labelled peptide as substrate pre-incubated for 10 mins followed by substrate addition by mobility shift assay relative to control
[5] = target: T1, Fibroblast growth factor receptor 1 (Homo sapiens, UniProt P11362); assay: Inhibition of N-terminal GST-tagged human FGFR1 cytoplasmic domain (398-822 AA) expressed in baculovirus using FAM-labelled peptide as substrate pre-incubated for 10 mins followed by substrate addition by mobility shift assay
[6] = target: Platelet-derived growth factor receptor beta (Homo sapiens) (UniProt P09619); assay: Inhibition of N-terminal GST tagged human PDGFRbeta cytoplasmic domain (557 to 1106 AA) expressed in baculovirus at 10 uM using FAM-labelled peptide as substrate pre-incubated for 10 mins followed by substrate addition by mobility shift assay relative to control
[7] = target: T1, Fibroblast growth factor receptor 1; assay: Inhibition of N-terminal GST-tagged human FGFR1 cytoplasmic domain (398-822 AA) expressed in baculovirus at 10 uM using FAM-labelled peptide as substrate pre-incubated for 10 mins followed by substrate addition by mobility shift assay relative to control
Target sequence in this assay (P11362 22-822 limits assumed): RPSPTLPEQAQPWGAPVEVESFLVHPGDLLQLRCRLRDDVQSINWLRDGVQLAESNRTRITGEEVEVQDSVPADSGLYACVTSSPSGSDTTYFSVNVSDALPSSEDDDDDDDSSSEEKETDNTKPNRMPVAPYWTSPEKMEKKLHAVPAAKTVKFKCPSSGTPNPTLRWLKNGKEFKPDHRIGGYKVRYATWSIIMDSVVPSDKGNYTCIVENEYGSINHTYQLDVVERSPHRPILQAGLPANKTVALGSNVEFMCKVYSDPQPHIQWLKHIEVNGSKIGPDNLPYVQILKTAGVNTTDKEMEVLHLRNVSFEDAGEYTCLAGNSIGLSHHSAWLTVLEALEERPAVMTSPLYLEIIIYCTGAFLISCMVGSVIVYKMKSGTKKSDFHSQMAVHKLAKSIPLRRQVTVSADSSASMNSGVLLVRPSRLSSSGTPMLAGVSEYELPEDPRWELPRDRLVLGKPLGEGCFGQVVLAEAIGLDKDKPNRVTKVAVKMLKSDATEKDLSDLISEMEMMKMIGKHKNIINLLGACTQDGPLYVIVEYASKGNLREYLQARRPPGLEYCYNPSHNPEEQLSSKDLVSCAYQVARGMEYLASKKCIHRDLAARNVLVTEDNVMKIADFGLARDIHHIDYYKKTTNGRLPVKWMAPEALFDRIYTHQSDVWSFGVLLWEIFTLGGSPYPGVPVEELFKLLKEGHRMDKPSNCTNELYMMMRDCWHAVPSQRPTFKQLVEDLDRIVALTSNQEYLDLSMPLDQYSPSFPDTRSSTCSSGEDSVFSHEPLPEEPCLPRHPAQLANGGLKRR

Mus musculus = assay: Down regulation of EGFR phosphorylation in BALB/c nude mouse xenografted with human HCC827GR cells at 15 mg/kg, ip dosed by western blot analysis; assay type: functional, organism-based
[8] = Induction of apoptosis in gefitinib-insensitive human HCC827GR cells assessed as necrotic cells at 1 uM measured after 24 hrs by Annexin-V/propidium iodide staining-based flow cytometric analysis (reference value: 5.8%); assay type: functional
[9] = Cmax in Sprague-Dawley rat at 30 mg/kg, po measured upto 24 hrs by UPLC-MS/MS; assay type: ADME, organism-based; parameters: dose 30 mg/kg, route oral; conditions: in vivo
[10] = target: T1, Fibroblast growth factor receptor 1; assay: Inhibition of FGFR1 in gefitinib-insensitive human HCC827GR cells assessed as reduction in FGF-induced FGFR1 phosphorylation upto 10 uM measured after 2 hrs by western blot analysis
Target sequence in this assay (P11362 22-822 limits assumed): as above

NCI-H520 = assay: Antiproliferative activity against human NCI-H520 cells incubated for 48 hrs by MTT assay; assay type: functional, cell-based; conditions: NCI-H520, 48 h
[11] = Antitumor activity against human HCC827GR cells xenografted in BALB/c nude mouse assessed as reduction in tumor weight at 15 mg/kg, ip dosed every 2 days (reference value: 0.82 +/- 0.06 g); assay type: functional
[12] = Volume of distribution in Sprague-Dawley rat at 30 mg/kg, po measured upto 24 hrs by UPLC-MS/MS; assay type: ADME, organism-based; conditions: in vivo
[13] = target: Cyclin-dependent kinase 1/cyclin B1 (Homo sapiens) (UniProt P06493+P14635); assay: Inhibition of CDC2/cyclinB1 (unknown origin) at 10 uM using FAM-labelled peptide as substrate pre-incubated for 10 mins followed by substrate addition by mobility shift assay relative to control; assay type: protein-complex assay
[14] = target: T2, Epidermal growth factor receptor (Homo sapiens, UniProt P00533); assay: Inhibition of EGFR in human PC9 cells assessed as reduction in EGF-induced AKT phosphorylation upto 10 uM incubated for 1 hr by Western blot analysis; assay type: cell-based
[15] = target: T2, Epidermal growth factor receptor; assay: Inhibition of EGF-induced EGFR phosphorylation in serum-starved human PC9 cells upto 10 uM incubated for 1 hr by Western blot analysis
[16] = target: Fibroblast growth factor receptor 3 (Homo sapiens) (UniProt P22607); assay: Inhibition of N-terminal GST tagged human FGFR3 cytoplasmic domain (436 to 806 AA) expressed in baculovirus at 10 uM using FAM-labelled peptide as substrate pre-incubated for 10 mins followed by substrate addition by mobility shift assay relative to control
[17] = target: Epidermal growth factor receptor (Homo sapiens, UniProt P00533, L858R); assay: Inhibition of recombinant human EGFR L858R mutant expressed in baculovirus using FAM-labelled peptide as substrate pre-incubated for 10 mins followed by substrate addition by mobility shift assay
[18] = target: T2, Epidermal growth factor receptor; assay: Inhibition of N-terminal GST-tagged human EGFR cytoplasmic domain (669-1210 AA) expressed in baculovirus at 10 uM using FAM-labelled peptide as substrate pre-incubated for 10 mins followed by substrate addition by mobility shift assay relative to control
[19] = target: T1, Fibroblast growth factor receptor 1; assay: Inhibition of FGF-induced FGFR1 phosphorylation in serum-starved human H520 cells upto 10 uM incubated for 1 hr by Western blot analysis
Target sequence in this assay (P11362 22-822 limits assumed): as above

[20] = target: Tyrosine-protein kinase JAK3 (Homo sapiens) (UniProt P52333); assay: Inhibition of N-terminal GST tagged human JAK3 catalytic domain (795 to 1124 AA) expressed in baculovirus at 10 uM using FAM-labelled peptide as substrate pre-incubated for 10 mins followed by substrate addition by mobility shift assay relative to control
[21] = target: Cyclin-dependent kinase 5/CDK5 activator 1 (Homo sapiens) (UniProt Q00535+Q15078); assay: Inhibition of CDK5/p35 (unknown origin) at 10 uM using FAM-labelled peptide as substrate pre-incubated for 10 mins followed by substrate addition by mobility shift assay relative to control; assay type: protein-complex assay
[22] = target: T2, Epidermal growth factor receptor; assay: Inhibition of N-terminal GST-tagged human EGFR (d746-750AA) expressed in baculovirus using FAM-labelled peptide as substrate pre-incubated for 10 mins followed by substrate addition by mobility shift assay
[23] = target: CDK6/cyclin D3 (Homo sapiens) (UniProt P30281+Q00534); assay: Inhibition of N-terminal GST tagged truncated human CDK6 (1 to 326 AA) coexpressed with CyclinD3 (1 to 292 AA) in baculovirus at 10 uM using FAM-labelled peptide as substrate pre-incubated for 10 mins followed by substrate addition by mobility shift assay relative to control; assay type: protein-complex assay
[24] = Induction of apoptosis in gefitinib-insensitive human HCC827GR cells assessed as necrotic cells at 10 uM measured after 24 hrs by Annexin-V/propidium iodide staining-based flow cytometric analysis (reference value: 5.8%); assay type: functional

T2 sequence (P00533 whole entry): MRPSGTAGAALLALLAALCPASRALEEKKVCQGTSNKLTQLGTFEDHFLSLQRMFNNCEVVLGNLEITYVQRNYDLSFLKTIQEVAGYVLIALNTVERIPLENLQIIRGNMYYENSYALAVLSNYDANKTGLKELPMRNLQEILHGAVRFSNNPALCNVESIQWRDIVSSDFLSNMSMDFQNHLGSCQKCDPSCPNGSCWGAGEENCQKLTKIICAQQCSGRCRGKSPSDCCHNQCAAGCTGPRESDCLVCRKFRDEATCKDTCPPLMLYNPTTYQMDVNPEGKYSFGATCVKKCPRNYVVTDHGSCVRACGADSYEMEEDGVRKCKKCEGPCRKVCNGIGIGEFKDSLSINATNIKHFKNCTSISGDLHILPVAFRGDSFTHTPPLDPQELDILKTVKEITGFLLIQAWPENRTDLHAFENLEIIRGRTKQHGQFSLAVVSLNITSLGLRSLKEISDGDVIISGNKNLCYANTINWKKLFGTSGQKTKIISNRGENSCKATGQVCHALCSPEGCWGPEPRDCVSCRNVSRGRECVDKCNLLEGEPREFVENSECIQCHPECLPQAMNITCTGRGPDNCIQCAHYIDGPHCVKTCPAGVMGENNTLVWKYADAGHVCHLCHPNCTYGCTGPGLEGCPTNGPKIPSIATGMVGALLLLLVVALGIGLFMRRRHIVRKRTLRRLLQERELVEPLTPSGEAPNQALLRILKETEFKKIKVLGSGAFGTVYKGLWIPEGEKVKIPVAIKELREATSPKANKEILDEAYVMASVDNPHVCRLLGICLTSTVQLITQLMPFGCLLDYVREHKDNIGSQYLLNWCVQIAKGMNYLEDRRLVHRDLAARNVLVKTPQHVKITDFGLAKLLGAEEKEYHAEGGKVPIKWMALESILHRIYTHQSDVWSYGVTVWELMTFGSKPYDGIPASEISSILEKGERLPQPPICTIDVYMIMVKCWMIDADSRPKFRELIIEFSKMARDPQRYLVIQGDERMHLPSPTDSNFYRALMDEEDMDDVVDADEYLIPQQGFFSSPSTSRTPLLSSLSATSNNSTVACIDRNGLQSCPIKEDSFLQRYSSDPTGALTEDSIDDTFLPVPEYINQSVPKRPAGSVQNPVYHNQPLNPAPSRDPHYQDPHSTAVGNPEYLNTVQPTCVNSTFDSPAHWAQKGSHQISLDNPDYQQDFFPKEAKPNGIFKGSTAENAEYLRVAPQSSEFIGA
Sequence of Cyclin-dependent kinase 1/cyclin B1 (Homo sapiens) (P06493 whole entry, looked up): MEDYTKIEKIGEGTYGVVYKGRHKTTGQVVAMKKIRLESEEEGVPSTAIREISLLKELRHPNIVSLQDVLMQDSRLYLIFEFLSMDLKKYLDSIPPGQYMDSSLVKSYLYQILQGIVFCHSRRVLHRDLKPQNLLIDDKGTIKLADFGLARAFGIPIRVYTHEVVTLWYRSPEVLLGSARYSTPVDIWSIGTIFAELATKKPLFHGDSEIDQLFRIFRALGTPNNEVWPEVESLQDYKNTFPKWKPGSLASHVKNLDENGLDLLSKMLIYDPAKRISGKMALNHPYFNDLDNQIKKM
Sequence of Cyclin-dependent kinase 1/cyclin B1 (Homo sapiens) (P14635 whole entry, looked up): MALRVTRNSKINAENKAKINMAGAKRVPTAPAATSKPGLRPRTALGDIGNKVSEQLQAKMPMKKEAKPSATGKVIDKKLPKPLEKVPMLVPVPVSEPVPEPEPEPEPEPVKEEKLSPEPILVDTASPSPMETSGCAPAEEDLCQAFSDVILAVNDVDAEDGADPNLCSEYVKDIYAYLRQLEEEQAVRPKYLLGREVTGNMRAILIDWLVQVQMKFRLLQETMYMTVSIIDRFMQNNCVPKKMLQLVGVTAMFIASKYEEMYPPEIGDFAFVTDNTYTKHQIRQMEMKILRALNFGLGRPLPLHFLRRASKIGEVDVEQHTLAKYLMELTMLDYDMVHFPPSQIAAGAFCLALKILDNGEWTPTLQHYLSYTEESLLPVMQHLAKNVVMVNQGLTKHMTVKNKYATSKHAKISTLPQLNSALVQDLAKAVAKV
Sequence of Platelet-derived growth factor receptor beta (Homo sapiens) (P09619 whole entry, the tested form may be a part): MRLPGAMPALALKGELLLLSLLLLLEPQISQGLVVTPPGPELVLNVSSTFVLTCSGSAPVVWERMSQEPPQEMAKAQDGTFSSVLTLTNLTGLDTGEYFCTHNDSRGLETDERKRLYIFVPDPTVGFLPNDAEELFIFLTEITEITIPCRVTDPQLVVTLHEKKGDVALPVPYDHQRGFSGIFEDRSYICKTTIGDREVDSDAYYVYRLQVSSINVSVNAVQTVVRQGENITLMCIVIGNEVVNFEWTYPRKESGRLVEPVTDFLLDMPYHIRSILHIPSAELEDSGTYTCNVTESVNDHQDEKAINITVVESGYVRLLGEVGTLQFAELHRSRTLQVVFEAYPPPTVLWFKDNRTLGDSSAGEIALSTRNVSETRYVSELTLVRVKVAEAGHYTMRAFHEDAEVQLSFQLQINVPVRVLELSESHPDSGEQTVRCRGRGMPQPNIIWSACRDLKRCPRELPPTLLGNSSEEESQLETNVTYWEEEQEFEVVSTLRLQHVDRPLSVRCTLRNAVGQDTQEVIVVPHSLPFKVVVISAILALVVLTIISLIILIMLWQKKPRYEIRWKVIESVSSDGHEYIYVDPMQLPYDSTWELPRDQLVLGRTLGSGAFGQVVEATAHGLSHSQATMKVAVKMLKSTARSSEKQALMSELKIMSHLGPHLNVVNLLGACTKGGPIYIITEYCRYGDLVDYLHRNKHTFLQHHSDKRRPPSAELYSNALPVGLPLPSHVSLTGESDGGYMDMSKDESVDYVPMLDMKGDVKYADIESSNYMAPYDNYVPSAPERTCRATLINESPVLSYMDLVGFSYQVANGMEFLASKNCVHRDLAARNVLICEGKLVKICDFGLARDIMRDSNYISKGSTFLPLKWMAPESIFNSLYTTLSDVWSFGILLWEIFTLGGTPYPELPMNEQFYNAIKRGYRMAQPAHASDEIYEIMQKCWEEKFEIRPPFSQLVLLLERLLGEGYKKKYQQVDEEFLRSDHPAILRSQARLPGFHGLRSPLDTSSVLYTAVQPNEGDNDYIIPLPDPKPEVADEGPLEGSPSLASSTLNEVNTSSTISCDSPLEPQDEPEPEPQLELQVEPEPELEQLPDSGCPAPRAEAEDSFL
Sequence of RAC-alpha serine/threonine-protein kinase (Homo sapiens) (P31749 whole entry, the tested form may be a part): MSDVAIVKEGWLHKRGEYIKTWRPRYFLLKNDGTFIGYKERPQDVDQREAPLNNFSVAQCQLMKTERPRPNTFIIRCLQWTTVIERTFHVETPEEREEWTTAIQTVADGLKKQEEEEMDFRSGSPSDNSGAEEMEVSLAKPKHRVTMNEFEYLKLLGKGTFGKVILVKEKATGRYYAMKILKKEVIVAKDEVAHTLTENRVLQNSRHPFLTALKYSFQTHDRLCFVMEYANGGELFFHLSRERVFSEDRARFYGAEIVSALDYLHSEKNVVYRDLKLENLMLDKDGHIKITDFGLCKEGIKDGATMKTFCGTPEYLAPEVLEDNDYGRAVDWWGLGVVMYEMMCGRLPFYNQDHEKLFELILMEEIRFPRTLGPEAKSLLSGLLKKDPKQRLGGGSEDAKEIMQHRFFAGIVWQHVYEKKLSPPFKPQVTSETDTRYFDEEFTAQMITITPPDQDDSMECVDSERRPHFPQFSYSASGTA
Sequence of Cyclin-dependent kinase 5/CDK5 activator 1 (Homo sapiens) (Q00535 whole entry): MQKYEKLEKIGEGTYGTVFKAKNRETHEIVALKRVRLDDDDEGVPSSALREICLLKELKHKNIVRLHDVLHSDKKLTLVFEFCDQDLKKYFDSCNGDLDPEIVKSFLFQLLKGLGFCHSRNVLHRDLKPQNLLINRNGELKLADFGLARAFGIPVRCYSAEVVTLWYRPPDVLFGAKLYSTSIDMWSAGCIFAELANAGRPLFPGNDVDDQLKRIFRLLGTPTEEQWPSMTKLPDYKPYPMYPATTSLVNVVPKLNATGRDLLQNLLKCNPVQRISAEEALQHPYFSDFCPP
Sequence of Cyclin-dependent kinase 5/CDK5 activator 1 (Homo sapiens) (Q15078 99-307 partner limits assumed): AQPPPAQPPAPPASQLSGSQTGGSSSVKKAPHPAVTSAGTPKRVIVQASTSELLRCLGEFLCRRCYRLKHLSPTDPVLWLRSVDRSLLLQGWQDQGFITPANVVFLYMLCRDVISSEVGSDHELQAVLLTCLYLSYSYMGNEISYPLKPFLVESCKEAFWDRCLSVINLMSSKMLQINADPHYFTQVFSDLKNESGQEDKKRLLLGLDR

COc1ccc(OC)c(Nc2cc(NC(=O)Nc3c(Cl)cccc3Cl)ncn2)c1
IC50 (NCI-H1581): 2530 nM
inhibition [1]: 45.8%
inhibition [2]: 22.3%
inhibition [3]: 19.4%
inhibition [4]: 13.9%
IC50 [5]: 808 nM
inhibition [6]: 56.2%
inhibition [7]: 88.5%
Activity (Mus musculus): Active
Activity [8]: 3.6%
Cmax [9]: 1270 ng/mL
inhibition [10]: Active
IC50 (NCI-H520): 3030 nM
Activity [11]: 0.41 g
Vd [12]: 0.03 L/kg
inhibition [13]: -9.78%
inhibition [14]: Active
inhibition [15]: Active
inhibition [16]: 15.8%
IC50 [17]: 39 nM
inhibition [18]: 92.7%
inhibition [19]: Active
inhibition [20]: 3.36%
inhibition [21]: -2.81%
IC50 [22]: 73 nM
inhibition [23]: 9.31%
Activity [24]: 5.4%
